From ChEMBL document CHEMBL1201862, “PubChem BioAssay data set” (2004)
Active and inactive are the calls of the source.

Columns and labels:
[1] = biological target: T1, Replicative DNA helicase DnaB (Mycobacterium tuberculosis, UniProt P9WMR3); experiment: DnaB intein splicing inhibitors, dose response, biochemical, cell-free fluorescence (AID 449749); format: functional
T1 sequence (P9WMR3 whole entry): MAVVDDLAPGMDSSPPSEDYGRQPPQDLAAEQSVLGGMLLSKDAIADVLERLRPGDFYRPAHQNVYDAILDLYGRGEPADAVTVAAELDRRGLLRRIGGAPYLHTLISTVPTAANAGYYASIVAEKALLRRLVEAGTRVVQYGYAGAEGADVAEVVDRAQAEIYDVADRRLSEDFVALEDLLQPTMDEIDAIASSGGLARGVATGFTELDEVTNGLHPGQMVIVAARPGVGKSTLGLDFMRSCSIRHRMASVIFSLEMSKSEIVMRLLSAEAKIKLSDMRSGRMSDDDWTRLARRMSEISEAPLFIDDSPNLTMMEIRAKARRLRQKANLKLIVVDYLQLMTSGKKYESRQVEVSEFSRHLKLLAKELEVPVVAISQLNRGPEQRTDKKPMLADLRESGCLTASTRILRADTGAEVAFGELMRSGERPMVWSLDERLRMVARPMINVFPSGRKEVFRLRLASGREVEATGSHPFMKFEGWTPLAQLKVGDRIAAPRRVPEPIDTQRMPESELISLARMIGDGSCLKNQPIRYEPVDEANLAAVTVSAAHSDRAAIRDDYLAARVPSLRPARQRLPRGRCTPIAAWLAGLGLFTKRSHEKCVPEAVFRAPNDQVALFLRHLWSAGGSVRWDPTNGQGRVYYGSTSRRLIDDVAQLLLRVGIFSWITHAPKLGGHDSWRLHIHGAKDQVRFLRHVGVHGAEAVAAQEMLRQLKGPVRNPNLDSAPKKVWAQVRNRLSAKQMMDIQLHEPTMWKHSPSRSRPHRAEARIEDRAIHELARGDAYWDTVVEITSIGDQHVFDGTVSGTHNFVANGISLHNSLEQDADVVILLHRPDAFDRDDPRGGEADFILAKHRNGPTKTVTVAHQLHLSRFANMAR

Protein RecA = biological target: T2, Protein RecA (Mycobacterium tuberculosis, UniProt P9WHJ3); experiment: Fluorescence Cell-Free Homogeneous Dose Retest to Identify Inhibitors of RecA-Intein Splicing Activity. [Related pubchem assays (depositor defined):AID2097, AID2223, AID489010, AID492950]; format: functional
T2 sequence (P9WHJ3 whole entry): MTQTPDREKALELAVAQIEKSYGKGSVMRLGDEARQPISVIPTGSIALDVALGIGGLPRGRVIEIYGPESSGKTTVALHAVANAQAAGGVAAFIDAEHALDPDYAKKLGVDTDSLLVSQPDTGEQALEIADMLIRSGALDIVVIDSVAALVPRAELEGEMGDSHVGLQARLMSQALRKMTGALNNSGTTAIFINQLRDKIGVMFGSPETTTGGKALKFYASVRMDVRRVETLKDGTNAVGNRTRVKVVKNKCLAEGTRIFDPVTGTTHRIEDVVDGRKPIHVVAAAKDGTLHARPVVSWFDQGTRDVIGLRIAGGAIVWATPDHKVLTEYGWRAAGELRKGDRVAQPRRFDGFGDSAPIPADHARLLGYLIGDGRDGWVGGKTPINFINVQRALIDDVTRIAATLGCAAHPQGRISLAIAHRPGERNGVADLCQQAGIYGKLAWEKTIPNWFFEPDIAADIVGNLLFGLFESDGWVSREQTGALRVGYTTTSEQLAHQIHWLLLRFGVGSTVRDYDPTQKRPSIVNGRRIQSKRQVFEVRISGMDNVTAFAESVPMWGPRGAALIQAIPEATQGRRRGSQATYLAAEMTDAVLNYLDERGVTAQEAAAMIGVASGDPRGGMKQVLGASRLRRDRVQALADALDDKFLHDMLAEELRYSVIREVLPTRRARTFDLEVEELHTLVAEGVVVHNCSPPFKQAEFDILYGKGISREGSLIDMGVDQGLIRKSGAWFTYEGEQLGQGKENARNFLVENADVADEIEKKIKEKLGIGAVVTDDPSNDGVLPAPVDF

Protein skinhead-1 = biological target: T3, Protein skinhead-1 (Caenorhabditis elegans, UniProt P34707); format: functional
T3 sequence (P34707 whole entry): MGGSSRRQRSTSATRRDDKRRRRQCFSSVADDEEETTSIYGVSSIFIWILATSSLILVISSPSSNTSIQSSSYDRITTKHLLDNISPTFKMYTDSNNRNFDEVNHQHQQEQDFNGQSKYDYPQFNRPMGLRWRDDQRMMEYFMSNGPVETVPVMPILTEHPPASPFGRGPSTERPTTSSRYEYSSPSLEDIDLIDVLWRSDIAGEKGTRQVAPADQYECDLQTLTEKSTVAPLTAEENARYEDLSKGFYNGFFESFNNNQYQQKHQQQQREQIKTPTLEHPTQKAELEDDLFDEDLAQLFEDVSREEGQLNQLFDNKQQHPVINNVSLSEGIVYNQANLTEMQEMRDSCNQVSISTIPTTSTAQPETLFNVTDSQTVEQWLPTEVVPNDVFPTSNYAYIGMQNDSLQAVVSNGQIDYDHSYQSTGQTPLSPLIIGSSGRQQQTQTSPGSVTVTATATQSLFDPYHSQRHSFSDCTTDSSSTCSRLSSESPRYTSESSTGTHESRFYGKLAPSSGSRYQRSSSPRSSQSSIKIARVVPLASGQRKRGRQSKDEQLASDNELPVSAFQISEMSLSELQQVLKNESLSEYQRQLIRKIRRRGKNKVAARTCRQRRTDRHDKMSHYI

Cytochrome P450 2D6 = Cytochrome P450 2D6 (Homo sapiens, UniProt P10635);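 note: CYP2D6 member of a cytochrome P450 panel assay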
[2] = cytotoxicity toward NIH3T3 fibroblasts, dose response, counter-screen, cell-based, ATP luminescence, mouse fibroblasts (AID 2010); format: functional;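 note: cells exposed to compound for about 90 hours before reading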
[3] = inhibitors of intracellular T. cruzi replication, confirmation, NIH3T3 host cells, beta-gal luminescence (AID 2044); format: functional, cell-based;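 note: intracellular parasites grown in NIH/3T3 mouse fibroblasts as host cells; luminescent beta-galactosidase reporter signal from transgenic T. cruzi replicating inside host cells; inhibitors lower the luminescence signal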
[4] = system: Streptococcus sp. 'group A'; experiment: growth inhibition of control SK(-) GAS strain, dose response, counter-screen for streptokinase expression inhibitor project, luminescence, kanamycin, BacTiterGlo, confirmation (AID 1900); format: functional, organism-based
[5] = Luminescence Cell-Based Dose Retest to Confirm Inhibitors of Cancer Stem Cells. [Related pubchem assays (depositor defined):AID2717, AID2721]; format: functional; details: Homo sapiens
Streptococcus = experiment: Group A Streptococcus viability loss, dose response, counter-screen for streptokinase expression inhibitor project, luminescence, BacTiterGlo (AID 1915); format: functional, organism-based;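 note: potency for reduction of bacterial viability or growth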
Streptokinase A = biological target: T4, Streptokinase A (Streptococcus pyogenes serotype M1, UniProt P10520); experiment: S. pyogenes streptokinase expression inhibitors, potency, dose response, plasminogen activation absorbance, OD405 (AID 1914); format: functional, Streptococcus pyogenes M1 GAS;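 note: secreted streptokinase activity via plasminogen activation per viability signal from cell pellet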
T4 sequence (P10520 whole entry): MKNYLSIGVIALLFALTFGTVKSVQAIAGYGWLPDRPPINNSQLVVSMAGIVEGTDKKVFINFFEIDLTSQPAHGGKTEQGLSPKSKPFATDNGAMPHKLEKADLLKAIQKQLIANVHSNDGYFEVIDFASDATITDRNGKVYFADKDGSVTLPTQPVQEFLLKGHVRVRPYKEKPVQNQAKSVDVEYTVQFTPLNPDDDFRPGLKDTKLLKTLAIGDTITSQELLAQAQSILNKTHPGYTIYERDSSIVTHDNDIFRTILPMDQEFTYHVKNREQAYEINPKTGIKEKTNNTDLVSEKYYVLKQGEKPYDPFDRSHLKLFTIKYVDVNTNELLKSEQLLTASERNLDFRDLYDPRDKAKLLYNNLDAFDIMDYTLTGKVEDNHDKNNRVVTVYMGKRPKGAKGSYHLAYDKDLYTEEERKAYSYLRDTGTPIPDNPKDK

INS1 = experiment: beta cell apoptosis inhibitors, cytokine rescue, dose response, luminescence, retest (AID 449756); format: functional, cell-based; details: Rattus norvegicus;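 note: cell death triggered by IL-1 beta plus TNF-alpha plus IFN-gamma mixture; protective hits raise ATP signal compared with cytokine alone wells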

Cytochrome P450 2D6, sequence (P10635 whole entry): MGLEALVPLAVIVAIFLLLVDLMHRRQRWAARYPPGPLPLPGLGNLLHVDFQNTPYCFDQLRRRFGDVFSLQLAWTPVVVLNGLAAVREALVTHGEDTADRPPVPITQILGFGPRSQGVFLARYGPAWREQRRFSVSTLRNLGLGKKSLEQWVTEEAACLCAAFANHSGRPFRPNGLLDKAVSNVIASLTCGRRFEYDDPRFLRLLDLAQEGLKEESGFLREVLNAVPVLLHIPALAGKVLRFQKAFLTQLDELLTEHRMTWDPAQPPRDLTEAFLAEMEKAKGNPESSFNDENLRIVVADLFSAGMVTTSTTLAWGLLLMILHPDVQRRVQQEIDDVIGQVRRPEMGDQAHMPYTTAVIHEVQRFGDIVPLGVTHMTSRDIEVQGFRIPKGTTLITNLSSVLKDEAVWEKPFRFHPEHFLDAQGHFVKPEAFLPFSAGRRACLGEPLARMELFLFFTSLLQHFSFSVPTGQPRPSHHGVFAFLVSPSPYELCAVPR

For Cn1c2c(c(=O)n(C)c1=O)[C@@]1(C(=O)Nc3ccccc31)C(C#N)=C(N)O2, the AC50 [1] was 34.1 µM (inconclusive) and the EC50 (Protein RecA) was 17.5 µM (active).

In the case of c1csc(-c2nc(-c3ccncc3)no2)c1, the IC50 (Protein skinhead-1) is reported as 22.2 µM (active).

With O=C(NC(c1ccc(-c2ccccc2)cc1)c1cnccn1)C1CCN(CCOc2ccc(Cl)cc2Cl)CC1 (centres undefined) the IC50 (Protein skinhead-1) was > 100 µM (inactive).

In the case of CN(C(=O)C1Cc2c(-c3ccccc3Oc3ccccc3)ccnc2O1)c1ccccc1 (centres undefined), the IC50 (Protein skinhead-1) is reported as > 100 µM (inactive).

In the case of Brc1ccc(-c2nnc(-c3ccccc3Br)o2)cc1, the IC50 (Protein skinhead-1) is reported as > 100 µM (inactive).

For CC(C)C1COC(c2cccc3ccccc23)=N1 (centres undefined), the IC50 (Protein skinhead-1) was 25 µM (active).

With CNc1nc(-c2ccoc2)nc2ccccc12 the AC50 (Cytochrome P450 2D6) was 39.8 µM (inconclusive).

In the case of CCN(C(=O)COC(=O)c1cc(-c2cccc3ccccc23)nc2ccccc12)C1CCS(=O)(=O)C1 (centres undefined), the IC50 (Protein skinhead-1) is reported as > 100 µM (inactive).

With C=CCN1C(=O)NC(c2ccc(OC)cc2)(C(F)(F)F)S/C1=C(\C#N)c1nnc(N2CCOCC2)n1-c1ccccc1 (centres undefined) the AC50 [1] was 6.76 µM (active) and the EC50 (Protein RecA) was 9.73 µM (active).

With CCCC1(C(=O)OCC)NC(c2ccc(N(C)C)cc2)C2C(=O)N(c3ccccc3)C(=O)C21 (centres undefined) the IC50 (Protein skinhead-1) was > 100 µM (inactive).

With Cc1cc(Nc2ccccc2)c2c([N+](=O)[O-])ccc(C)c2n1 the AC50 [1] was > 380 µM (inactive), the EC50 (Protein RecA) was 0.551 µM (active) and the EC50 [2] was > 30 µM (not active). For the same compound, the EC50 [3] was 1.41 µM (active).

For O=C(Nc1ccc(Br)c(C(F)(F)F)c1)c1ccc(C(F)(F)F)cc1, the EC50 [4] was 1.74 µM (active), the AC50 [5] was 2.06 µM (active) and the EC50 (Streptococcus) was 3.98 µM (active). The EC50 (Streptokinase A) was > 150 µM (not active) and the AC50 (INS1) was 8.01 µM (active).

For CC(C(=O)O)N1C(=O)CSc2ncccc21 (centres undefined), the AC50 [5] was > 195 µM (inactive).

With CC(C)(C)[C@@H]1CCC(=O)N(CC[C@H](Sc2ccc(Br)cc2)c2ccccc2)CC1 the AC50 [5] was 3.18 µM (active).

In the case of CCNc1ncc2nc(-c3ccccc3)c(=O)n(C3CC3)c2n1, the AC50 (Cytochrome P450 2D6) is reported as 1.26 µM (inconclusive).

In the case of COc1ccc(C(C)C)cc1S(=O)(=O)n1cnc(C)c1, the IC50 (Protein skinhead-1) is reported as > 100 µM (inactive).

In the case of N#CC1=C(N)Oc2[nH]nc(-c3ccccc3)c2C1c1ccncc1 (centres undefined), the AC50 [1] is reported as 12.3 µM (active) and the EC50 (Protein RecA) is reported as 3.12 µM (active).

For CCOc1ccc2nc(O)c(CN(CCc3ccccc3)C(=O)N3CCCC3)cc2c1, the AC50 (Cytochrome P450 2D6) was 22.4 µM (inconclusive).

With CCOC(=O)c1cccc(C2=CC(=O)C[C@H](c3ccc(Cl)cc3)C2)c1 the AC50 [5] was 0.885 µM (active).

For C/C(=N\NC(N)=S)c1cc(-c2ccccc2)c(-c2ccccc2)s1, the AC50 [5] was 3.27 µM (active).

In the case of O=C(CN=C(S)N(Cc1ccccc1)Cc1ccccc1F)NCCc1ccc(Cl)cc1, the EC50 [2] is reported as > 60 µM (not active), the AC50 [5] is reported as 5.59 µM (active) and the EC50 [3] is reported as 1.92 µM (active).

In the case of O=C(Nc1ccc(Cl)c(Cl)c1)Nc1ccon1, the EC50 [4] is reported as 44.4 µM (active), the IC50 (Protein skinhead-1) is reported as > 100 µM (inactive) and the EC50 (Streptococcus) is reported as 38.7 µM (active). The EC50 (Streptokinase A) was > 150 µM (not active).

In the case of CC1CCN(S(=O)(=O)c2ccc(C(=O)N3CCOCC3)cc2)CC1, the IC50 (Protein skinhead-1) is reported as > 100 µM (inactive).

In the case of O=C(Nc1nc(-c2ccc(Cl)s2)cs1)c1ccccc1, the IC50 (Protein skinhead-1) is reported as 68.3 µM (inactive).

For CSc1cccc(NC(=O)C2C3C=CC4(O3)C2C(=O)N(CCN2CCOCC2)C4C(=O)NC2CCCCC2)c1 (centres undefined), the IC50 (Protein skinhead-1) was > 100 µM (inactive).

In the case of CCC(C)c1ccc(NC(=O)C2CC3CCC2C3)cc1 (centres undefined), the AC50 [5] is reported as 4.53 µM (active).

In the case of O=C(CCl)c1ccc(Cc2ncc(C(F)(F)F)cc2Cl)s1, the EC50 [4] is reported as 4.31 µM (active), the AC50 [1] is reported as 3.57 µM (active) and the EC50 (Protein RecA) is reported as 1.69 µM (active). For the same compound, the EC50 (Streptococcus) was 6.13 µM (active) and the EC50 (Streptokinase A) was 3.38 µM (active).

For c1ccc2oc(SCc3nc4ccccc4s3)nc2c1, the IC50 (Protein skinhead-1) was 37.5 µM (active).

With COc1ccc(-c2nn(-c3ccccc3)cc2C(=O)N(C)CC(=O)Nc2cccc(F)c2)cc1 the AC50 [5] was 12.9 µM (active).

With Cc1ccc(N2CCN(S(=O)(=O)c3ccc4oc(=O)ccc4c3)CC2)c(C)c1 the IC50 (Protein skinhead-1) was > 100 µM (inactive).
